From US20090163515A1, “Compounds Which Bind to the Active Site of Protein Kinase Enzymes” (Biofocus Discovery Ltd., priority 2003, published 2009)

System: ROK
Assay: ROK activity assay
Format: biochemical
Design: key: +: active; ++: more active; +++: very active
Details: assays conducted at 1-100 μM

| Compound | ROK activity |
| --- | --- |
| Oc1ccc(-c2cncc(NCc3ccc4ccccc4c3)c2)cc1 [4-{5-[(Naphthalen-2-ylmethyl)-amino]-pyridin-3-yl}-phenol] | + |
| Oc1ccc(-c2cncc(NCC3CCCN3)c2)cc1 (stereo not drawn) [4-{5-[(Pyrrolidin-2-ylmethyl)-amino]-pyridin-3-yl}-phenol] | ++ |
| COc1ccc(CNc2cncc(-c3ccc(O)cc3)c2)cc1O [5-{[5-(4-Hydroxy-phenyl)-pyridin-3-ylamino]-methyl}-2-methoxy-phenol] | ++ |
| Oc1ccc(-c2cncc(NCc3cc(O)cc(O)c3)c2)cc1 [5-{[5-(4-Hydroxy-phenyl)-pyridin-3-ylamino]-methyl}-benzene-1,3-diol] | ++ |
| c1ccc2ncc(-c3cnc(NCCc4ccncc4)cn3)cc2c1 [(2-Pyridin-4-yl-ethyl)-(5-quinolin-3-yl-pyrazin-2-yl)-amine] | ++ |
| COc1cc(-c2cnc(NCCc3ccncc3)cn2)cc(OC)c1OC [(2-Pyridin-4-yl-ethyl)-[5-(3,4,5-trimethoxy-phenyl)-pyrazin-2-yl]-amine] | ++ |
| FC(F)(F)Oc1cccc(-c2cnc(NCCc3ccncc3)cn2)c1 [(2-Pyridin-4-yl-ethyl)-[5-(3-trifluoromethoxy-phenyl)-pyrazin-2-yl]-amine] | ++ |
| FC(F)(F)Oc1ccc(-c2cnc(NCCc3ccncc3)cn2)cc1 [(2-Pyridin-4-yl-ethyl)-[5-(4-trifluoromethoxy-phenyl)-pyrazin-2-yl]-amine] | ++ |
| Clc1cccc(CNc2cnc(-c3ccncc3)cn2)c1 [(3-Chloro-benzyl)-(5-pyridin-4-yl-pyrazin-2-yl)-amine] | ++ |
| COc1ccc(CNc2cnc(-c3ccncc3)cn2)cc1 [(4-Methoxy-benzyl)-(5-pyridin-4-yl-pyrazin-2-yl)-amine] | + |
| Oc1cccc(CNc2cncc(-c3cccc(O)c3)c2)c1 [(5-(3′-hydroxy-phenyl)-pyridin-3-yl)-(3-hydroxy-benzyl)-amine] | + |
| Oc1ccc(-c2cncc(NCc3cccc(O)c3)c2)cc1 [(5-(4′-hydroxy-phenyl)-pyridin-3-yl)-(3-hydroxy-benzyl)-amine] | +++ |
| c1cc(CCNc2cnc(-c3ccc4c(c3)OCO4)cn2)ccn1 [(5-Benzo[1,3]dioxol-5-yl-pyrazin-2-yl)-(2-pyridin-4-yl-ethyl)-amine] | ++ |
| c1ccc2sc(-c3cnc(NCCc4ccncc4)cn3)cc2c1 [(5-Benzo[b]thiophen-2-yl-pyrazin-2-yl)-(2-pyridin-4-yl-ethyl)-amine] | ++ |
| c1ccc2oc(-c3cnc(NCCc4ccncc4)cn3)cc2c1 [(5-Benzofuran-2-yl-pyrazin-2-yl)-(2-pyridin-4-yl-ethyl)-amine] | ++ |
| c1cncc(CCNc2cnc(-c3ccc4ccccc4c3)cn2)c1 [(5-Naphthalen-2-yl-pyrazin-2-yl)-(2-pyridin-3-yl-ethyl)-amine] | + |
| c1ccc2cc(-c3cnc(NCCc4ccncc4)cn3)ccc2c1 [(5-Naphthalen-2-yl-pyrazin-2-yl)-(2-pyridin-4-yl-ethyl)-amine] | ++ |
| c1csc(CNc2cnc(-c3ccncc3)cn2)c1 [(5-Pyridin-4-yl-pyrazin-2-yl)-thiophen-2-ylmethyl-amine] | ++ |
| c1cc(-c2cnc(NCc3ccc4c(c3)OCO4)cn2)ccn1 [Benzo[1,3]dioxol-5-ylmethyl-(5-pyridin-4-yl-pyrazin-2-yl)-amine] | ++ |
| c1cc(-c2cncc(NCc3ccc4c(c3)OCO4)c2)ccn1 [Benzo[1,3]dioxol-5-ylmethyl-[3,4′]bipyridinyl-5-yl-amine] | ++ |
| CN(C)CCNC(=O)c1cccc(-c2cncc(Nc3ccc4ccccc4c3)c2)c1 [N-(2-Dimethylamino-ethyl)-3-[5-(naphthalen-2-ylamino)-pyridin-3-yl]-benzamide] | + |
| O=C(NCCO)c1cccc(-c2cnc(NCCc3ccncc3)cn2)c1 [N-(2-Hydroxy-ethyl)-3-[5-(2-pyridin-4-yl-ethylamino)-pyrazin-2-yl]-benzamide] | + |
| COc1ccc(NC(=O)c2ccc(-c3cnc(NCCc4ccncc4)cn3)cc2)cc1 [N-(4-Methoxy-phenyl)-4-[5-(2-pyridin-4-yl-ethylamino)-pyrazin-2-yl]-benzamide] | ++ |

| Compound | ROK activity |
| --- | --- |
| CC(=O)Nc1cccc(-c2cncc(NCc3cccc(O)c3)c2)c1 [N-{3-[5-(3-Hydroxy-benzylamino)-pyridin-3-yl]-phenyl}-acetamide] | + |
| CC(=O)Nc1ccc(-c2cncc(NCc3cccc(O)c3)c2)cc1 [N-{4-[5-(3-Hydroxy-benzylamino)-pyridin-3-yl]-phenyl}-acetamide] | + |
| Clc1ccc(CNc2cncc(-c3ccncc3)c2)cc1Cl [[3,4′]Bipyridinyl-5-yl-(3,4-dichloro-benzyl)-amine] | ++ |
| Fc1ccc(CNc2cncc(-c3ccncc3)c2)cc1F [[3,4′]Bipyridinyl-5-yl-(3,4-difluoro-benzyl)-amine] | ++ |
| Brc1cccc(Nc2cncc(-c3ccncc3)c2)c1 [[3,4′]Bipyridinyl-5-yl-(3-bromo-phenyl)-amine] | ++ |
| Clc1cccc(CNc2cncc(-c3ccncc3)c2)c1 [[3,4′]Bipyridinyl-5-yl-(3-chloro-benzyl)-amine] | ++ |
| Clc1cccc(Nc2cncc(-c3ccncc3)c2)c1 [[3,4′]Bipyridinyl-5-yl-(3-chloro-phenyl)-amine] | ++ |
| O=[N+]([O-])c1cccc(Nc2cncc(-c3ccncc3)c2)c1 [[3,4′]Bipyridinyl-5-yl-(3-nitro-phenyl)-amine] | ++ |
| FC(F)(F)Oc1cccc(CNc2cncc(-c3ccncc3)c2)c1 [[3,4′]Bipyridinyl-5-yl-(3-trifluoromethoxy-benzyl)-amine] | ++ |
| Brc1ccc(CNc2cncc(-c3ccncc3)c2)cc1 [[3,4′]Bipyridinyl-5-yl-(4-bromo-benzyl)-amine] | +++ |
| Fc1cc(CNc2cncc(-c3ccncc3)c2)ccc1Cl [[3,4′]Bipyridinyl-5-yl-(4-chloro-3-fluoro-benzyl)-amine] | +++ |
| Clc1ccc(CNc2cncc(-c3ccncc3)c2)cc1 [[3,4′]Bipyridinyl-5-yl-(4-chloro-benzyl)-amine] | +++ |
| COc1ccc(CNc2cncc(-c3ccncc3)c2)cc1 [[3,4′]Bipyridinyl-5-yl-(4-methoxy-benzyl)-amine] | +++ |
| c1cc(-c2cncc(NCC3CCCCC3)c2)ccn1 [[3,4′]Bipyridinyl-5-yl-cyclohexylmethyl-amine] | ++ |
| c1cc(-c2cncc(NCc3ccoc3)c2)ccn1 [[3,4′]Bipyridinyl-5-yl-furan-3-ylmethyl-amine] | ++ |
| c1ccc2cc(CNc3cncc(-c4ccncc4)c3)ccc2c1 [[3,4′]Bipyridinyl-5-yl-naphthalen-2-ylmethyl-amine] | ++ |
| c1cc(-c2cncc(NCC3CCCN3)c2)ccn1 (stereo not drawn) [[3,4′]Bipyridinyl-5-yl-pyrrolidin-2-ylmethyl-amine] | + |
| COc1ccc(-c2cnc(NCCc3ccncc3)cn2)cc1OC [[5-(3,4-Dimethoxy-phenyl)-pyrazin-2-yl]-(2-pyridin-4-yl-ethyl)-amine] | ++ |
| Fc1ccc(-c2cnc(NCCc3ccncc3)cn2)cc1Cl [[5-(3-Chloro-4-fluoro-phenyl)-pyrazin-2-yl]-(2-pyridin-4-yl-ethyl)-amine] | + |
| COc1ccc(-c2cnc(NCCc3ccncc3)cn2)cc1 [[5-(4-Methoxy-phenyl)-pyrazin-2-yl]-(2-pyridin-4-yl-ethyl)-amine] | ++ |
| CSc1ccc(-c2cnc(NCCc3ccncc3)cn2)cc1 [[5-(4-Methylsulfanyl-phenyl)-pyrazin-2-yl]-(2-pyridin-4-yl-ethyl)-amine] | ++ |
| OCc1ccc(-c2cnc(NCCc3ccncc3)cn2)cc1 [{4-[5-(2-Pyridin-4-yl-ethylamino)-pyrazin-2-yl]-phenyl}-methanol] | + |
